Source: PMC10589072, “Evaluation of Potential Peptide-Based Inhibitors against SARS-CoV-2 and Variants of Concern” (BioMed Research International, 2023)
Where no end group is shown, it is not given here.

Assays:
[1] = tested on: 293T ACE-2 SSC22 cells (HEK 293T expressing ACE2 receptor)
Procedure: The cytotoxicity of the peptides was assessed using a viability assay. […] Cells with peptides were cultured for 3 days, after which cell viability was measured using an ATP assay (Promega, G9681).

[2] = molecular target: T1, SARS-CoV-2 spike S1 protein (Severe acute respiratory syndrome coronavirus 2, UniProt P0DTC2); experiment: biochemical; format: binding
T1 construct: The fluorescent dye NT647 was used to label the SARS-CoV-2 spike S1; purchased Sino Biological 40591-V08H

For “IDWQFWFHYDKWDHEWEDEWYQSS-NH2 [Peptide P25]”, the “cytotoxicity” value ([1]; 0.125 to 4 mM, 72 hours, ATP assay, n = 3) was “low toxicity”, the cell viability ([1]; 72 h, 4 mM) was 91-100% and the “KD compared with ACE2-S protein affinity” value [2] was “comparable to the observed affinity between the S protein and ACE2”. It also gave a Kd ([2]; 21°C, read-out: KD (constant of dissociation)) of 42.2 nM.
